The values that follow come from patent publication US9238657B2, “Cephalosporin having catechol group” (SHIONOGI & CO., LTD., priority 2008, dated 2016).

≈ marks a conversion by molar mass, not a printed value. Read-outs that look alike come from different tables or passages of the source.

Assay in all cases: Minimum Inhibitory Concentration (MIC), agar plate incubation
Holding throughout (assay type): cell-based

In assay [1] the test system is Pseudomonas aeruginosa SR27060. The protocol: (§1) Measurement of Minimum Inhibitory Concentration (MIC, microg/ml) was conducted according to the standard method of the Japan Society for Chemotherapy, and the amount of bacteria for inoculation was 1000 cfu/spot, and sensitive disc medium was used as the test medium, and conducted using agar plate incubation.
(§2) In the tables, a unit of the values of inhibitory activity is microg/ml (μg/ml).
(§3) Bacterial strains described in the above tables and enzyme (beta-lactamase) produced thereby are explained in Table 7.

Assay [2] concerns Pseudomonas aeruginosa SR24. The protocol: as §1, §2, §3
Assay [3] concerns Stenotrophomonas maltophilia SR21970. The settings on record: Stenotrophomonas maltophilia SR21970 (L-1, MBL producer strain, carbapenem resistant); 1000 cfu/spot, sensitive disc medium; read-out: Minimum Inhibitory Concentration (MIC). As for the experimental part: as §1, §2, §3
The test system of assay [4] is Acinetobacter baumannii SR24396. The protocol:
as §1, §2, §3

Assay [5] concerns Klebsiella pneumoniae ATCC 700603. As for the experimental part:
as §1, §2, §3

[6] abbreviates: Pseudomonas aeruginosa SR27060 (IMP-1, MBL producer strain, carbapenem resistant), 1000 cfu/spot, sensitive disc medium, read-out: Minimum Inhibitory Concentration (MIC).
Where [7] appears, read: Pseudomonas aeruginosa SR24 (no enzyme, Ceftazidime sensitive strain), 1000 cfu/spot, sensitive disc medium, read-out: Minimum Inhibitory Concentration (MIC).
The mark [8] stands for this setting: Acinetobacter baumannii SR24396 (no enzyme), 1000 cfu/spot, sensitive disc medium, read-out: Minimum Inhibitory Concentration (MIC).
[9] abbreviates: ATCC700603, Klebsiella pneumoniae ATCC 700603 (SHV-18, ESBL producer strain), 1000 cfu/spot, sensitive disc medium, read-out: Minimum Inhibitory Concentration (MIC).

On to `COc1c(O)ccc(C(=O)NCC[N+]2(CC3=C(C(=O)[O-])N4C(=O)C(NC(=O)/C(=N\OC(C)(C)C(=O)O)c5csc(N)n5)C4SC3)CCCC2)c1Cl` (stereo not shown) [Comparative Compound 1, reference compound], for which the MIC in assay [1] (setting [6]) is 32 µg/mL (≈ 41.8 µM); in assay [2] (setting [7]), 4 µg/mL (≈ 5.22 µM); in assay [3], 16 µg/mL (≈ 20.9 µM); in assay [4] (setting [8]) it was 64 µg/mL (≈ 83.5 µM); in assay [5] (setting [9]) it was 16 µg/mL (≈ 20.9 µM).
Take `CC(C)(O/N=C(\C(=O)N[C@@H]1C(=O)N2C(C(=O)[O-])=C(C[N+]3(CCNC(=O)c4ccc(O)c(O)c4Cl)CCCC3)CS[C@H]12)c1nsc(N)n1)C(=O)O` [Compound I-1]: the MIC was 0.25 µg/mL (≈ 0.332 µM) in assay [1] (setting [6]); 0.063 µg/mL (≈ 0.0836 µM) in assay [2] (setting [7]); 0.5 µg/mL (≈ 0.664 µM) in assay [3]; 0.125 µg/mL (≈ 0.166 µM) in assay [4] (setting [8]); 0.5 µg/mL (≈ 0.664 µM) in assay [5] (setting [9]).
In the case of `CC(C)(O/N=C(\C(=O)N[C@@H]1C(=O)N2C(C(=O)O)=C(C[N+]3(CCNC(=O)c4ccc(O)c(O)c4)CCCC3)CS[C@H]12)c1csc(N)n1)C(=O)O` [Compound I-2], the MIC in assay [1] (setting [6]) came to 0.125 µg/mL; in assay [2] (setting [7]), 0.063 µg/mL; in assay [4] (setting [8]) it was 0.25 µg/mL; in assay [5] (setting [9]) it was 0.25 µg/mL.
On to `CC(C)(O/N=C(\C(=O)N[C@@H]1C(=O)N2C(C(=O)O)=C(C[N+]3(CCNC(=O)c4cc(Cl)c(O)c(O)c4Cl)CCCC3)CS[C@H]12)c1csc(N)n1)C(=O)O` [Compound I-3], for which the MIC in assay [1] (setting [6]) came out at 0.125 µg/mL; in assay [2] (setting [7]), 0.031 µg/mL; in assay [4] (setting [8]), 0.125 µg/mL; in assay [5] (setting [9]), 0.125 µg/mL.
Regarding `CC(C)(O/N=C(\C(=O)N[C@@H]1C(=O)N2C(C(=O)[O-])=C(C[N+]3(CCNC(=O)c4ccc(O)c(O)c4Cl)CCCCCC3)CS[C@H]12)c1csc(N)n1)C(=O)O` [Compound I-8], the MIC in assay [1] (Pseudomonas aeruginosa, SR27060, read-out: Minimum Inhibitory Concentration (MIC)) was found to be 0.125 µg/mL (≈ 0.16 µM); in assay [2] (Pseudomonas aeruginosa, SR24, read-out: Minimum Inhibitory Concentration (MIC)) it was 0.031 µg/mL (≈ 0.0397 µM); in assay [4] (Acinetobacter baumannii, SR24396, read-out: Minimum Inhibitory Concentration (MIC)), 0.25 µg/mL (≈ 0.32 µM); in assay [5] (Klebsiella pneumoniae, ATCC700603, read-out: Minimum Inhibitory Concentration (MIC)), 0.125 µg/mL (≈ 0.16 µM).
Regarding `CC(C)(O/N=C(\C(=O)N[C@@H]1C(=O)N2C(C(=O)[O-])=C(C[N+]3(CCNC(=O)c4ccc(O)c(O)c4Cl)CCCC3)CS[C@H]12)c1csc(N)n1)C(=O)O` [Compound I-12], the MIC in assay [1] (setting [6]) is 0.125 µg/mL (≈ 0.166 µM); in assay [2] (setting [7]), 0.063 µg/mL (≈ 0.0838 µM); in assay [3] it was 0.5 µg/mL (≈ 0.665 µM); in assay [4] (setting [8]) it was 0.25 µg/mL (≈ 0.332 µM); in assay [5] (setting [9]), 0.25 µg/mL (≈ 0.332 µM).
As for `C[C@H](O/N=C(\C(=O)N[C@@H]1C(=O)N2C(C(=O)[O-])=C(C[N+]3(CCNC(=O)c4ccc(O)c(O)c4Cl)CCCC3)CS[C@H]12)c1nc(N)sc1Cl)C(=O)[O-].[Na+]` [Compound I-15], the MIC came to 0.125 µg/mL in assay [1] (setting [6]); 0.063 µg/mL in assay [2] (setting [7]); 4 µg/mL in assay [3]; 0.25 µg/mL in assay [4] (setting [8]); 0.125 µg/mL in assay [5] (setting [9]).
In the case of `CC(C)(O/N=C(\C(=O)N[C@@H]1C(=O)N2C(C(=O)[O-])=C(C[N+]3(CCNC(=O)c4ccc(O)c(O)c4)CCCCC3)CS[C@H]12)c1csc(N)n1)C(=O)O` [Compound I-17], the MIC is 0.125 µg/mL (≈ 0.171 µM) in assay [1] (setting [6]); 0.063 µg/mL (≈ 0.0861 µM) in assay [2] (setting [7]); 0.5 µg/mL (≈ 0.683 µM) in assay [3]; 0.5 µg/mL (≈ 0.683 µM) in assay [4] (setting [8]); 0.25 µg/mL (≈ 0.342 µM) in assay [5] (setting [9]).
In the case of `CC(C)(O/N=C(\C(=O)N[C@@H]1C(=O)N2C(C(=O)[O-])=C(C[N+]3(CCNC(=O)c4ccc(O)c(O)c4Cl)CCCCC3)CS[C@H]12)c1csc(N)n1)C(=O)O` [Compound I-18], the MIC is 0.25 µg/mL (≈ 0.326 µM) in assay [1] (setting [6]); 0.063 µg/mL (≈ 0.0822 µM) in assay [2] (setting [7]); 0.5 µg/mL (≈ 0.653 µM) in assay [3]; 0.25 µg/mL (≈ 0.326 µM) in assay [4] (setting [8]); 0.125 µg/mL (≈ 0.163 µM) in assay [5] (setting [9]).
`CC(C)(O/N=C(\C(=O)N[C@@H]1C(=O)N2C(C(=O)[O-])=C(C[N+]3(CCNC(=O)c4cc(Cl)c(O)c(O)c4Cl)CCCCC3)CS[C@H]12)c1csc(N)n1)C(=O)O` [Compound I-19]: the MIC in assay [1] (setting [6]) was found to be 0.125 µg/mL (≈ 0.156 µM); in assay [2] (setting [7]) it was 0.063 µg/mL (≈ 0.0787 µM); in assay [3], 0.25 µg/mL (≈ 0.312 µM); in assay [4] (setting [8]), 0.125 µg/mL (≈ 0.156 µM); in assay [5] (setting [9]), 0.125 µg/mL (≈ 0.156 µM).
Regarding `C[C@H](O/N=C(\C(=O)N[C@@H]1C(=O)N2C(C(=O)[O-])=C(C[N+]3(CCNC(=O)c4ccc(O)c(O)c4Cl)CCCCC3)CS[C@H]12)c1nc(N)sc1Cl)C(=O)[O-].[Na+]` [Compound I-22], the MIC in assay [1] (setting [6]) was 0.125 µg/mL; in assay [2] (setting [7]) it was 0.063 µg/mL; in assay [3] it was 4 µg/mL; in assay [4] (setting [8]), 0.25 µg/mL; in assay [5] (setting [9]), 0.125 µg/mL.
